Test results: patent US20260250325A1, “Antiviral Polypeptide Membrane Fusion Inhibitor, and Preparation Method and Application Thereof” (priority 2025, published 2026)
Where a SMILES comes first, the peptide text is derived from it. The star is where a group is joined. Succinyl(4-O-cholesteryl) = CC(C)CCC[C@@H](C)[C@H]1CC[C@H]2[C@@H]3CC=C4C[C@@H](OC(=O)CCC(=O)*)CC[C@]4(C)[C@H]3CC[C@]12C; X1 = CC(C)CCCC(C)C1CCC2C3CC=C4CC(OC(=O)CCC(=O)*)CCC4(C)C3CCC12C

Key:
hPIV-N51 (139-189) = biological target: T1, hPIV-N51 (139-189) (Human parainfluenza 3 virus, UniProt P06828); assay: SPR affinity to hPIV-N51 coupled on CM5 chip; type: binding
T1 construct: hPIV-N51 (139-189)
T1 sequence (P06828 139-189): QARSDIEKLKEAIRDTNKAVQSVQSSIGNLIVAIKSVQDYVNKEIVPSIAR
Experimental: hMPV and hPIV were two viruses having a typical Class I fusion protein-F protein. An F protein precursor F0 was cracked into F1 and F2 subunits. […] When the compound flowed through a chip surface, changes in an SPR signal were monitored in real time, binding and dissociation processes were recorded, and a binding rate constant (ka) and a dissociation rate constant (kd) were further obtained through kinetic analysis, thereby calculating an equilibrium dissociation constant (KD=kd/ka).
A CM5 chip with a catalog number 29149603, an amino coupling reagent kit with a catalog number BR100050, HBS-EP+Buffer (10×), sodium acetate (pH 4.0), and a 10 mM glycine-HCl buffer (pH 2.0) were all purchased from GE Health.
CM5 chip coupling: Channels 2 and 4 of the CM5 chip were activated for 7 min by using a freshly-prepared mixture of 50 mM Hydroxy succinimide (NHS) and 200 mM 1-(3-Dimethylaminopropyl)-3-ethylcarbodiimide (EDC) according to 1:1; and then, hMPV-N46 or hPIV-N51 was diluted and dissolved with sodium acetate with 4.0 pH to a concentration of 30 μM, with a flow rate of 10 μl/min and time of 600 s. An experimental buffer was HBS-EP+buffer (1×). Finally, the chip was blocked with 1 M ethanolamine. The instrument was set to a temperature of 25° C.
Affinity detection: the buffer used in the experiment was HBS-EP+buffer (1×), and a multi-cycle dynamic mode was used. Channels 1 and 3 of the chip served as blank reference channels; polypeptides to be detected sequentially flowed through Channels 2 and 4 at concentrations of 0 μM, 0.04 µM, 0.12 µM, 0.37 μM, 1.11 µM, 3.33 µM, 10 µM, and 30 μM; the flow rate was 30 μl/min, binding was performed for 180 s, and dissociation was performed for 120 s. Finally, the chip was regenerated by injecting 10 mM glycine (pH 2.0). The instrument was set to a temperature of 25° C.

hPIV3 C243 virus strain = type: cell-based, hPIV; details: LLC-MK2 cells, hPIV3 C243, plaque reduction; read-out: EC50 against hPIV3 virus
Experimental: Rhesus monkey kidney cells (LLC-MK2) were sourced from the ATCC, with a catalog number CCL-7.1. The cells were cultured in a DMEM culture solution in which 10% fetal bovine serum, 1% non-essential amino acids, 1% sodium pyruvate, 1% L-glutamine, 100 U/ml penicillin, and 100 μg/ml streptomycin were added.
An HPIV-3 plaque experiment culture medium consisted of a DMEM culture solution added with 2% fetal bovine serum, 1% non-essential amino acids, 1% sodium pyruvate, 1% L-glutamine, 100 U/ml penicillin, and 100 μg/ml streptomycin.
The hPIV Type 3 (hPIV3 C243) was sourced from the ATCC, with a catalog number VR-93.
This study used the plaque reduction experiment to detect the in-vitro activity of the test sample against the hPIV3 C243 virus strain, and Human Anti-HPIV3 Monoclonal Antibody, clone PIA174 was an experimental system control. The test sample and a system experimental antibody were tested at 8 concentrations in duplicated wells.
The LLC-MK2 cells were digested with trypsin and then diluted to a concentration of 400,000 cells per milliliter by using a cell culture solution containing 2% serum. The diluted cells were added to a 96-well cell test board, with 100 μL per well, corresponding to 40,000 cells per well. The cells were cultured overnight in a 37° C. incubator with 5% CO2.
On the next day, the sample diluted at a fold ratio and an equal volume of virus (approximately 200 PFU per well) were well mixed and incubated at 37° C. in 5% CO2 for 1 hour. Then, the culture solution in the 96-well cell test board was discarded, the sample virus mixed solution (100 μL) was added to the 96-well cell culture plate, and incubated at 37° C. in 5% CO2 for 2 hours. After 2 h, the sample virus mixed solution was discarded, 200 μL of an experiment culture medium containing the test sample with a corresponding concentration was added, and the culture solution contained 0.8% CMC. A final concentration of DMSO in the culture solution was 0.5%. A control antibody was directly added to the experiment culture solution containing 0.8% CMC. A cell control (cells, without compound treatment or viral infection) and a viral control (cell infection virus, without compound treatment) were set. The cells were cultured for 1 day in the 37° C. incubator with 5% CO2.
The cells were fixed with 4% paraformaldehyde, and then permeabilization was performed with 0.5% Triton X-100. After the plate was washed with DPBS, a hPIV specific antibody (1:2000 dilution) was added and incubated at 37° C. for 1.5 h. Then, a secondary antibody (1:500 dilution) was added and incubated at 37° C. for 1 hour. The secondary antibody was discarded, a TrueBlue solution was added, dyeing was performed for approximately 10 minutes; and the plate was washed with running water and then air-dried, and the number of spots in each well was counted by using a microplate imaging counter.
Raw data was used for calculating the antiviral activity of the samples, and a calculation formula was shown as follows.
% inhibition rate=100−(sample value-cell control average value)/(virus control average value-cell control average value)×100
Non-linear fitting analysis was performed on the inhibition rate of the sample by using GraphPad Prism (version 10), so as to calculate an EC50 value for the sample. A fitting formula was log (inhibitor) vs. response-Variable slope (four parameters).

Compound | Kd (hPIV-N51 (139-189)) | EC50 (hPIV3 C243 virus strain)
CC[C@H](C)[C@H](NC(=O)[C@H](CCCCN)NC(=O)[C@H](CCCCN)NC(=O)[C@H](CC(C)C)NC(=O)[C@H](CO)NC(=O)[C@H](CCC(=O)O)NC(=O)[C@H](CCC(=O)O)NC(=O)[C@@H](NC(=O)[C@H](CCCCN)NC(=O)[C@H](CCCCN)NC(=O)[C@H](CC(N)=O)NC(=O)[C@@H](NC(=O)[C@H](CCC(=O)O)NC(=O)[C@H](CCC(=O)O)NC(=O)[C@@H](NC(=O)[C@H](CCCCN)NC(=O)[C@H](CCCCN)NC(=O)[C@H](CC(=O)O)NC(=O)[C@H](Cc1ccccc1)NC(=O)[C@H](CCC(=O)O)NC(=O)[C@H](CC(=O)O)NC(=O)[C@H](Cc1c[nH]c2ccccc12)NC(C)=O)[C@@H](C)CC)C(C)C)[C@@H](C)CC)C(=O)N[C@@H](CCC(=O)O)C(=O)N[C@@H](CCC(=O)O)C(=O)N[C@@H](CO)C(=O)N[C@@H](CC(=O)O)C(=O)N[C@@H](CCCCN)C(=O)N[C@@H](CCCCN)C(=O)N[C@@H](CC(C)C)C(=O)N[C@@H](CCC(=O)O)C(=O)N[C@@H](C)C(=O)N[C@@H](C)C(=O)N[C@@H](C)C(=O)N[C@@H](CCCCN)C(=O)N[C@@H](CCCCNC(=O)CCC(=O)O[C@H]1CC[C@@]2(C)C(=CC[C@H]3[C@@H]4CC[C@H]([C@H](C)CCCC(C)C)[C@@]4(C)CC[C@@H]32)C1)C(N)=O [Compound 13] (Ac-WDEFDKKIEEVNKKIEESLKKIEESDKKLEAAAKK(Succinyl(4-O-cholesteryl))-NH2) | 2280 nM | 35.6 nM
CC[C@H](C)[C@H](NC(=O)[C@H](CCCCN)NC(=O)[C@H](CCCCN)NC(=O)[C@H](CC(C)C)NC(=O)[C@H](CO)NC(=O)[C@H](CCC(=O)O)NC(=O)[C@H](CCC(=O)O)NC(=O)[C@@H](NC(=O)[C@H](CCCCN)NC(=O)[C@H](CCCCN)NC(=O)[C@H](CC(N)=O)NC(=O)[C@@H](NC(=O)[C@H](CCC(=O)O)NC(=O)[C@H](CCC(=O)O)NC(=O)[C@@H](NC(=O)[C@H](CCCCN)NC(=O)[C@H](CCCCN)NC(=O)[C@H](CCCCN)NC(=O)[C@H](CC(=O)O)NC(=O)[C@H](Cc1ccccc1)NC(=O)[C@H](CCC(=O)O)NC(=O)[C@H](CC(=O)O)NC(C)=O)[C@@H](C)CC)C(C)C)[C@@H](C)CC)C(=O)N[C@@H](CCC(=O)O)C(=O)N[C@@H](CCC(=O)O)C(=O)N[C@@H](CO)C(=O)N[C@@H](CC(=O)O)C(=O)N[C@@H](CCCCN)C(=O)N[C@@H](CCCCN)C(=O)N[C@@H](CC(C)C)C(=O)N[C@@H](CCC(=O)O)C(=O)N[C@@H](CCC(=O)O)C(=O)N[C@H](C(=O)NCC(=O)N[C@@H](CO)C(=O)NCC(=O)N[C@@H](CO)C(=O)NCC(=O)N[C@@H](CCCCNC(=O)CCC(=O)O[C@H]1CC[C@@]2(C)C(=CC[C@H]3[C@@H]4CC[C@H]([C@H](C)CCCC(C)C)[C@@]4(C)CC[C@@H]32)C1)C(N)=O)C(C)C [Compound 15] (Ac-DEFDKKKIEEVNKKIEESLKKIEESDKKLEEVGSGSGK(Succinyl(4-O-cholesteryl))-NH2) | 1390 nM | 20.7 nM
CC[C@H](C)[C@H](NC(=O)[C@H](CCCCN)NC(=O)[C@H](CCCCN)NC(=O)[C@H](CC(C)C)NC(=O)[C@H](CO)NC(=O)[C@H](CCC(=O)O)NC(=O)[C@H](CCC(=O)O)NC(=O)[C@@H](NC(=O)[C@H](CCCCN)NC(=O)[C@H](CCCCN)NC(=O)[C@H](CC(N)=O)NC(=O)[C@@H](NC(=O)[C@H](CCC(=O)O)NC(=O)[C@H](CCC(=O)O)NC(=O)[C@@H](NC(=O)[C@H](CCCCN)NC(=O)[C@H](CCCCN)NC(=O)[C@H](CC(=O)O)NC(=O)[C@H](Cc1ccccc1)NC(=O)[C@H](CCC(=O)O)NC(=O)[C@H](CC(=O)O)NC(=O)[C@H](CO)NC(C)=O)[C@@H](C)CC)C(C)C)[C@@H](C)CC)C(=O)N[C@@H](CCC(=O)O)C(=O)N[C@@H](CCC(=O)O)C(=O)N[C@@H](CO)C(=O)N[C@@H](CC(=O)O)C(=O)N[C@@H](CCCCN)C(=O)N[C@@H](CCCCN)C(=O)N[C@@H](CC(C)C)C(=O)N[C@@H](CCC(=O)O)C(=O)N[C@@H](C)C(=O)N[C@@H](C)C(=O)N[C@@H](C)C(=O)N[C@@H](CCCCN)C(=O)N[C@@H](CCCCNC(=O)CCC(=O)O[C@H]1CC[C@@]2(C)C(=CC[C@H]3[C@@H]4CC[C@H]([C@H](C)CCCC(C)C)[C@@]4(C)CC[C@@H]32)C1)C(N)=O [Compound 16] (Ac-SDEFDKKIEEVNKKIEESLKKIEESDKKLEAAAKK(Succinyl(4-O-cholesteryl))-NH2) | 5400 nM | 59 nM
CC[C@H](C)[C@H](NC(=O)[C@H](CCCCN)NC(=O)[C@H](CCCCN)NC(=O)[C@H](CC(C)C)NC(=O)[C@H](CO)NC(=O)[C@H](CCC(=O)O)NC(=O)[C@H](CCC(=O)O)NC(=O)[C@@H](NC(=O)[C@H](CCCCN)NC(=O)[C@H](CCCCN)NC(=O)[C@H](CC(N)=O)NC(=O)[C@@H](NC(=O)[C@H](CCC(=O)O)NC(=O)[C@H](CCC(=O)O)NC(=O)[C@@H](NC(=O)[C@H](CCCCN)NC(=O)[C@H](CCCCN)NC(=O)[C@H](CC(=O)O)NC(=O)[C@H](Cc1ccccc1)NC(=O)[C@H](CCC(=O)O)NC(=O)[C@H](CC(=O)O)NC(C)=O)[C@@H](C)CC)C(C)C)[C@@H](C)CC)C(=O)N[C@@H](CCC(=O)O)C(=O)N[C@@H](CCC(=O)O)C(=O)N[C@@H](CO)C(=O)N[C@@H](CC(=O)O)C(=O)N[C@@H](CCCCN)C(=O)N[C@@H](CCCCN)C(=O)N[C@@H](CC(C)C)C(=O)N[C@@H](CCC(=O)O)C(=O)N[C@@H](CCC(=O)O)C(=O)N[C@H](C(=O)N[C@@H](CCC(=O)O)C(=O)N[C@@H](C)C(=O)N[C@@H](C)C(=O)N[C@@H](C)C(=O)N[C@@H](CCCCN)C(=O)N[C@@H](CCCCNC(=O)CCC(=O)OC1CCC2(C)C(=CCC3C2CCC2(C)C(C(C)CCCC(C)C)CCC32)C1)C(N)=O)C(C)C (some centres unmarked) [Compound 21] (Ac-DEFDKKIEEVNKKIEESLKKIEESDKKLEEVEAAAKK(X1)-NH2) |  | 21.3 nM
Ac-SLEQVNEKINQSLAFIRKSDEINQSDEEVNKSDELLEAAAKK-NH2 [Compound 50] |  | 34.8 nM
